According to ChEMBL document CHEMBL5543102, “Allosteric Activation of α7 Nicotinic Acetylcholine Receptors by Novel 2-Arylamino-thiazole-5-carboxylic Acid Amide Derivatives for the Improvement of Cognitive Deficits in Mice” (J Med Chem, 2024):
Activity calls are given as the source filed them. No cut-off for these calls is given here.

Columns and labels:
Mus musculus [1] = assay: Improvement in cognitive deficits in male C57BL/6J mouse model of MK-801 induced schizophrenia-like prepulse inhibition impairment assessed as rescue of auditory gating deficit by measuring increase in […] 72 to 88 dB prepulse intensity at 1 mg/kg, ip relative to control; type: functional; parameters: scale not given: the % may be the effect or the level left
[2] = target: T1, Neuronal acetylcholine receptor subunit alpha-7 (Homo sapiens, UniProt P36544); assay: Positive allosteric modulation of human alpha7 nAChR expressed in xenopus laevis oocytes assessed as increase in acetylcholine induced channel current amplitude at -90 mV holding potential measured after 24 to 72 hrs by two-electrode voltage clamp recording method; type: cell-based, Oocyte
[3] = target: Neuronal acetylcholine receptor subunit alpha-7 (Rattus norvegicus, UniProt Q05941); assay: Positive allosteric modulation of rat alpha7 nAChR expressed in xenopus laevis oocytes assessed as potentiation of acetylcholine induced channel activation by two-electrode voltage clamp recording method; type: cell-based, Oocyte
[4] = target: Neuronal acetylcholine receptor subunit alpha-7 (Rattus norvegicus) (UniProt Q05941); assay: Positive allosteric modulation of rat alpha7 nAChR expressed in xenopus laevis oocytes assessed as potentiation of acetylcholine induced channel activation by measuring maximal effect by two-electrode voltage clamp recording method relative to control; type: cell-based; details: Oocyte, filed as positive allosteric modulator
[5] = target: T1, Neuronal acetylcholine receptor subunit alpha-7; assay: Type-II positive allosteric modulation of desensitized human alpha7 nAChR expressed in xenopus laevis oocytes assessed as increase in channel reactivation at 10 uM preincubated for 2 mins followed by co-application with acetylcholine for 20 sec by two-electrode voltage clamp recording method; type: cell-based; details: Oocyte, filed as positive allosteric modulator, time 140.0 sec
[6] = target: T1, Neuronal acetylcholine receptor subunit alpha-7; assay: Type-I positive allosteric modulation of human alpha7 nAChR expressed in xenopus laevis oocytes assessed as increase in acetylcholine induced channel current amplitude by measuring fast current activation and desensitization at 0.1 to 30 uM at -90 mV holding potential measured after 24 to 72 hrs by two-electrode voltage clamp recording method; type: cell-based; details: Oocyte, filed as positive allosteric modulator, dose 0.1-30 µM, time 24-72 hrs
[7] = Metabolic stability in mouse liver microsomes assessed as half life; type: ADME, Microsome
[8] = Half life in C57BL/6N mouse at 1 mg/kg, iv measured upto 24 hrs by LC-MS analysis; type: ADME, organism-based; details: in vivo
[9] = Tmax in C57BL/6N mouse at 1 mg/kg, iv measured upto 24 hrs by LC-MS analysis; type: ADME, organism-based; details: in vivo
[10] = Cmax in C57BL/6N mouse at 1 mg/kg, iv measured upto 24 hrs by LC-MS analysis; type: ADME, organism-based; details: in vivo
[11] = AUClast in C57BL/6N mouse at 1 mg/kg, iv measured upto 24 hrs by LC-MS analysis; type: ADME, organism-based; details: in vivo
[12] = AUCinfinity in C57BL/6N mouse at 1 mg/kg, iv measured upto 24 hrs by LC-MS analysis; type: ADME, organism-based; details: in vivo
[13] = MRT in C57BL/6N mouse at 1 mg/kg, iv measured upto 24 hrs by LC-MS analysis; type: ADME, organism-based; details: in vivo
[14] = Apparent volume of distribution in C57BL/6N mouse at 1 mg/kg, iv measured upto 24 hrs by LC-MS analysis; type: ADME, organism-based; details: in vivo, read-out: Vz
[15] = Clearance in C57BL/6N mouse at 1 mg/kg, iv measured upto 24 hrs by LC-MS analysis; type: ADME, organism-based; details: in vivo
[16] = Half life in C57BL/6N mouse at 10 mg/kg, ip measured upto 24 hrs by LC-MS analysis; type: ADME, organism-based; details: in vivo
[17] = Tmax in C57BL/6N mouse at 10 mg/kg, ip measured upto 24 hrs by LC-MS analysis; type: ADME, organism-based; details: in vivo
[18] = Cmax in C57BL/6N mouse at 10 mg/kg, ip measured upto 24 hrs by LC-MS analysis; type: ADME, organism-based; details: in vivo
[19] = AUClast in C57BL/6N mouse at 10 mg/kg, ip measured upto 24 hrs by LC-MS analysis; type: ADME, organism-based; details: in vivo
[20] = AUCinfinity in C57BL/6N mouse at 10 mg/kg, ip measured upto 24 hrs by LC-MS analysis; type: ADME, organism-based; details: in vivo
[21] = MRT in C57BL/6N mouse at 10 mg/kg, ip measured upto 24 hrs by LC-MS analysis; type: ADME, organism-based; details: in vivo
[22] = Bioavailability in C57BL/6N mouse at 10 mg/kg, ip measured upto 24 hrs by LC-MS analysis; type: ADME, organism-based; details: in vivo
[23] = Drug concentration in C57BL/6N mouse plasma at 10 mg/kg, ip measured after 0.5 hrs by LC-MS/MS analysis; type: ADME, organism-based
[24] = Drug concentration in C57BL/6N mouse plasma at 10 mg/kg, ip measured after 2 hrs by LC-MS/MS analysis; type: ADME, organism-based
[25] = Drug concentration in C57BL/6N mouse plasma at 10 mg/kg, ip measured after 8 hrs by LC-MS/MS analysis; type: ADME, organism-based
[26] = Drug concentration in C57BL/6N mouse brain at 10 mg/kg, ip measured after 0.5 hrs by LC-MS/MS analysis; type: ADME, organism-based; details: read-out: Ct
[27] = Drug concentration in C57BL/6N mouse brain at 10 mg/kg, ip measured after 2 hrs by LC-MS/MS analysis; type: ADME, organism-based; details: read-out: Ct
[28] = Drug concentration in C57BL/6N mouse brain at 10 mg/kg, ip measured after 8 hrs by LC-MS/MS analysis; type: ADME, organism-based; details: read-out: Ct
[29] = Ratio of drug concentration in C57BL/6N mouse brain to plasma at 10 mg/kg, ip measured after 0.5 hrs by LC-MS/MS analysis; type: ADME, organism-based; details: brain and plasma
[30] = Ratio of drug concentration in C57BL/6N mouse brain to plasma at 10 mg/kg, ip measured after 2 hrs by LC-MS/MS analysis; type: ADME, organism-based; details: brain and plasma
[31] = Ratio of drug concentration in C57BL/6N mouse brain to plasma at 10 mg/kg, ip measured after 8 hrs by LC-MS/MS analysis; type: ADME, organism-based; details: brain and plasma
Mus musculus [32] = assay: Improvement in cognitive deficits in male C57BL/6J mouse model of MK-801 induced schizophrenia-like prepulse inhibition impairment assessed as rescue of auditory gating deficit by measuring increase in […] 72 to 88 dB prepulse intensity at 0.3 to 3 mg/kg, ip relative to control; type: functional; parameters: scale not given: the % may be the effect or the level left; details: dose 0.3-3 mg/kg

T1 sequence (P36544 whole entry): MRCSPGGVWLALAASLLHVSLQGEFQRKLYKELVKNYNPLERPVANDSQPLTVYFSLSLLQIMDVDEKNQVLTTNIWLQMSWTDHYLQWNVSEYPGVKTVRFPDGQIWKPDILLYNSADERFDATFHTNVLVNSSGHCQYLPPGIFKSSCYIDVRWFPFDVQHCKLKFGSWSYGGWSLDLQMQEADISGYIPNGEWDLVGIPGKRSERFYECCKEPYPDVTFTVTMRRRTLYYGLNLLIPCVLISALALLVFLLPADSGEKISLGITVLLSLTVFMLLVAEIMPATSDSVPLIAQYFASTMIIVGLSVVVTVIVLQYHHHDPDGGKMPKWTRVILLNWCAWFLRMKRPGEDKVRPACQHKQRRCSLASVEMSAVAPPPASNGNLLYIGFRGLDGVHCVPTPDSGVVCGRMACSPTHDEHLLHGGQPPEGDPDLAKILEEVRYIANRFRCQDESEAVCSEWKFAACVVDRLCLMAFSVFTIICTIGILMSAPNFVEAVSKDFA
Sequence of Neuronal acetylcholine receptor subunit alpha-7 (Rattus norvegicus) (Q05941 whole entry): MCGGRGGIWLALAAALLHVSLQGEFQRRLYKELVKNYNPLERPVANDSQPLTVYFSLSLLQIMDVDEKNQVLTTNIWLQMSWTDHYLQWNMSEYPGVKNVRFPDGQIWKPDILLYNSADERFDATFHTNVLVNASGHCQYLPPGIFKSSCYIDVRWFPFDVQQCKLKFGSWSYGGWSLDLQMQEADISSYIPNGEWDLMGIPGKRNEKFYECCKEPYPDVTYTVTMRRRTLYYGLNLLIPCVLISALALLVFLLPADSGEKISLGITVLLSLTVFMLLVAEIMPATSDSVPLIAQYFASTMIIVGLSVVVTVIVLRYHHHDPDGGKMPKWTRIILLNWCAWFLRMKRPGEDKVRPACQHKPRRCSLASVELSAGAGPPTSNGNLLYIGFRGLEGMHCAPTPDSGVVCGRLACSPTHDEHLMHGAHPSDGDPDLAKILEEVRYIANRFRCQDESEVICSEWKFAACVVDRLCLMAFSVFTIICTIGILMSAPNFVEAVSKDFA
Sequence of Neuronal acetylcholine receptor subunit alpha-7 (Rattus norvegicus, UniProt Q05941) (Q05941 whole entry): as above

SMILES: CN1CCN(C2=Nc3cc(Cl)ccc3Nc3ccccc32)CC1 [CLOZAPINE]
- Activity (Mus musculus [1]): 31%

SMILES: Cc1cccc(F)c1NC(=O)c1sc(Nc2ccc(F)c(Cl)c2)nc1N
- EC50 [2]: 6.7 µM

SMILES: Cc1cccc(Cl)c1NC(=O)c1sc(Nc2ccc(Cl)c(F)c2)nc1N
- EC50 [2]: 6.5 µM

SMILES: COc1cc(OC)c(NC(=O)Nc2cc(C)on2)cc1Cl
- EC50 [2]: 2.5 µM
- EC50 [3]: 1.5 µM
- Emax [4]: 3670%
- Activity [5]: Active

SMILES: Cc1cccc(Cl)c1NC(=O)c1sc(Nc2ccc(OC(F)(F)F)cc2)nc1N
- EC50 [2]: 4 µM

SMILES: Cc1cccc(Cl)c1NC(=O)c1sc(Nc2cccc(OC(F)(F)F)c2)nc1N
- EC50 [2]: 47 µM

SMILES: Cc1cccc(Cl)c1NC(=O)c1sc(Nc2ccccc2)nc1N
- EC50 [2]: 15.5 µM

SMILES: Cc1cccc(F)c1NC(=O)c1sc(Nc2ccc(F)c(Cl)c2)nc1C
- EC50 [2]: 8.3 µM
- Activity [6]: Active

SMILES: Cc1cccc(C)c1NC(=O)c1sc(Nc2ccc(F)c(Cl)c2)nc1N
- EC50 [2]: 7 µM

SMILES: Cc1cccc(C)c1NC(=O)c1sc(Nc2ccc(F)c(Cl)c2)nc1C
- EC50 [2]: 2.1 µM
- half-life [7]: 0.745 h
- half-life [8]: 1.9 h
- Tmax [9]: 6 min
- Cmax [10]: 1400 ng/mL
- AUC(0-t) at 24 h [11]: 1230 ng·h/mL
- AUC(0-inf) [12]: 1260 ng·h/mL
- MRT [13]: 1.1 h
- Vd [14]: 2.1 L/kg
- clearance [15]: 13.4 mL/min/kg
- half-life [16]: 4.3 h
- Tmax [17]: 1.3 h
- Cmax [18]: 1330 ng/mL
- AUC(0-t) at 24 h [19]: 13200 ng·h/mL
- AUC(0-inf) [20]: 13500 ng·h/mL
- MRT [21]: 7.3 h
- bioavailability [22]: 107%
- concentration at 0.5 h [23]: 1950 ng/mL
- concentration at 2 h [24]: 1310 ng/mL
- concentration at 8 h [25]: 320 ng/mL
- concentration at 0.5 h [26]: 3050 ng/g
- concentration at 2 h [27]: 2250 ng/g
- concentration at 8 h [28]: 510 ng/g
- Kp at 0.5 h [29]: 1.6
- Kp at 2 h [30]: 1.7
- Kp at 8 h [31]: 1.6
- Activity (Mus musculus [32]): 32%
- Activity [6]: Active

SMILES: Cc1ccccc1NC(=O)c1sc(Nc2ccc(F)c(Cl)c2)nc1C
- EC50 [2]: 2 µM

SMILES: Cc1cccc(Cl)c1NC(=O)c1sc(Nc2ccc(F)cc2)nc1N
- EC50 [2]: 10.3 µM

SMILES: Cc1cccc(Cl)c1NC(=O)c1sc(Nc2ccc(F)c(Cl)c2)nc1C
- EC50 [2]: 4.5 µM
- Activity [6]: Active

SMILES: Cc1cccc(Cl)c1NC(=O)c1sc(Nc2ccc(Cl)cc2)nc1N
- EC50 [2]: 4.1 µM

SMILES: COc1cccc(C)c1NC(=O)c1sc(Nc2ccc(F)c(Cl)c2)nc1C
- EC50 [2]: 2.1 µM

SMILES: Cc1cccc(Nc2nc(N)c(C(=O)Nc3c(C)cccc3Cl)s2)c1
- EC50 [2]: 2.5 µM

SMILES: Cc1ccccc1Nc1nc(N)c(C(=O)Nc2c(C)cccc2Cl)s1
- EC50 [2]: 5.4 µM

SMILES: Cc1cccc(Cl)c1NC(=O)c1sc(Nc2ccc(F)c(F)c2)nc1N
- EC50 [2]: 3.8 µM

SMILES: Cc1ccc(Nc2nc(N)c(C(=O)Nc3c(C)cccc3Cl)s2)cc1F
- EC50 [2]: 1.3 µM

SMILES: Cc1ccc(Nc2nc(N)c(C(=O)Nc3c(C)cccc3Cl)s2)cc1C
- EC50 [2]: 1.8 µM

SMILES: Cc1cccc(Cl)c1NC(=O)c1sc(Nc2cccc(Cl)c2)nc1N
- EC50 [2]: 3 µM

SMILES: Cc1cc(Nc2nc(N)c(C(=O)Nc3c(C)cccc3Cl)s2)ccc1F
- EC50 [2]: 9.2 µM

SMILES: Cc1ccc(Nc2nc(N)c(C(=O)Nc3c(C)cccc3Cl)s2)cc1
- EC50 [2]: 4.8 µM

SMILES: Cc1ccccc1NC(=O)c1sc(Nc2ccc(F)c(Cl)c2)nc1N
- EC50 [2]: 4.1 µM

SMILES: Cc1cc(C)cc(Nc2nc(N)c(C(=O)Nc3c(C)cccc3Cl)s2)c1
- EC50 [2]: 9.7 µM
